Assay results: ChEMBL document CHEMBL5649169 (ChemMedChem, 2018)

Tests used:
[1] = target: Small ribosomal subunit protein RACK1 (Homo sapiens) (UniProt P63244)
[2] = target: Electrogenic aspartate/glutamate antiporter SLC25A13, mitochondrial (Homo sapiens) (UniProt Q9UJS0)
[3] = target: SWI/SNF-related matrix-associated actin-dependent regulator of chromatin subfamily A member 1 (Homo sapiens) (UniProt P28370)
[4] = target: Receptor for retinol uptake STRA6 (Homo sapiens) (UniProt Q9BX79)
[5] = target: Large ribosomal subunit protein eL19 (Homo sapiens) (UniProt P84098)
[6] = target: Protein kinase C and casein kinase substrate in neurons protein 2 (Homo sapiens) (UniProt Q9UNF0)
[7] = target: Paired amphipathic helix protein Sin3a (Homo sapiens) (UniProt Q96ST3)
[8] = target: General transcription factor IIF subunit 2 (Homo sapiens) (UniProt P13984)
[9] = target: Malate dehydrogenase, cytoplasmic (Homo sapiens) (UniProt P40925)
[10] = target: Transcriptional repressor CTCF (Homo sapiens) (UniProt P49711)
[11] = target: Mitochondrial import inner membrane translocase subunit Tim10 (Homo sapiens) (UniProt P62072)
[12] = target: SPATS2-like protein (Homo sapiens) (UniProt Q9NUQ6)
[13] = target: Mismatch repair endonuclease PMS2 (Homo sapiens) (UniProt P54278)
[14] = target: Pyruvate dehydrogenase protein X component, mitochondrial (Homo sapiens) (UniProt O00330)
[15] = target: Lipid scramblase CLPTM1L (Homo sapiens) (UniProt Q96KA5)
[16] = target: Splicing factor 3B subunit 2 (Homo sapiens) (UniProt Q13435)
[17] = target: Small ribosomal subunit protein uS2 (Homo sapiens) (UniProt P08865)
[18] = target: Ubiquitin-protein ligase E3A (Homo sapiens) (UniProt Q05086)
[19] = target: Aldo-keto reductase family 1 member D1 (Homo sapiens) (UniProt P51857)
[20] = target: Exportin-4 (Homo sapiens) (UniProt Q9C0E2)
[21] = target: Microfibrillar-associated protein 1 (Homo sapiens) (UniProt P55081)
Cullin-4B (Homo sapiens) = Cullin-4B (Homo sapiens) (UniProt Q13620)
[22] = target: Dolichyl-diphosphooligosaccharide--protein glycosyltransferase 48 kDa subunit (Homo sapiens) (UniProt P39656)
[23] = target: Sorting nexin-2 (Homo sapiens) (UniProt O60749)
[24] = target: Arfaptin-2 (Homo sapiens) (UniProt P53365)
[25] = target: Small ribosomal subunit protein mS40 (Homo sapiens) (UniProt Q9Y676)
[26] = target: Large ribosomal subunit protein bL9m (Homo sapiens) (UniProt Q9BYD2)
[27] = target: Parathymosin (Homo sapiens) (UniProt P20962)
[28] = target: Y-box-binding protein 3 (Homo sapiens) (UniProt P16989)
[29] = target: Protein CIP2A (Homo sapiens) (UniProt Q8TCG1)
[30] = target: Dual specificity testis-specific protein kinase 1 (Homo sapiens) (UniProt Q15569)
[31] = target: Phosphatidylinositol 4,5-bisphosphate 3-kinase catalytic subunit beta isoform (Homo sapiens) (UniProt P42338)
[32] = target: Nuclear factor NF-kappa-B p105 subunit (Homo sapiens) (UniProt P19838)
[33] = target: NADH dehydrogenase [ubiquinone] flavoprotein 2, mitochondrial (Homo sapiens) (UniProt P19404)
[34] = target: Cytochrome c oxidase assembly protein COX14 (Homo sapiens) (UniProt Q96I36)
[35] = target: Rapamycin-insensitive companion of mTOR (Homo sapiens) (UniProt Q6R327)
Radixin (Homo sapiens) = Radixin (Homo sapiens) (UniProt P35241)
[36] = target: Phenylalanine--tRNA ligase beta subunit (Homo sapiens) (UniProt Q9NSD9)
[37] = target: Serine/arginine-rich splicing factor 9 (Homo sapiens) (UniProt Q13242)
[38] = target: DnaJ homolog subfamily C member 9 (Homo sapiens) (UniProt Q8WXX5)
[39] = target: Reticulon-3 (Homo sapiens) (UniProt O95197)
[40] = target: Protein-L-isoaspartate(D-aspartate) O-methyltransferase (Homo sapiens) (UniProt P22061)
[41] = target: Vacuole membrane protein 1 (Homo sapiens) (UniProt Q96GC9)
[42] = target: Phosphopentomutase (Homo sapiens) (UniProt Q96G03)
[43] = target: Methylcrotonoyl-CoA carboxylase beta chain, mitochondrial (Homo sapiens) (UniProt Q9HCC0)
Further: assay method not described here.

Vacuole membrane protein 1 (Homo sapiens), sequence (Q96GC9 whole entry): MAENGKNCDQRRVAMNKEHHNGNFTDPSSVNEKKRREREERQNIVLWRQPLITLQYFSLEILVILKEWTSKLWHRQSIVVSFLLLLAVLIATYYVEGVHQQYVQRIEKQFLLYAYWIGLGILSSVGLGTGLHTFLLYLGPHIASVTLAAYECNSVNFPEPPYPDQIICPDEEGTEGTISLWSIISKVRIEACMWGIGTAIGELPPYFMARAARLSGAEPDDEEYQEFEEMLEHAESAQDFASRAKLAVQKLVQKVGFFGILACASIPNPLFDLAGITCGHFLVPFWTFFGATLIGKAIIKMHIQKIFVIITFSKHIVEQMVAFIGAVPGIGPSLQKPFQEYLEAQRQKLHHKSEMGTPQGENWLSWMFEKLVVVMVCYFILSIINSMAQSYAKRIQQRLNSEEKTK
Parathymosin (Homo sapiens), sequence (P20962 whole entry): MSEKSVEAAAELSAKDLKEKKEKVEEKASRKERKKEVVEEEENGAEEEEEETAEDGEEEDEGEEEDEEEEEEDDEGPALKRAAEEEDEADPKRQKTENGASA
Arfaptin-2 (Homo sapiens), sequence (P53365 whole entry): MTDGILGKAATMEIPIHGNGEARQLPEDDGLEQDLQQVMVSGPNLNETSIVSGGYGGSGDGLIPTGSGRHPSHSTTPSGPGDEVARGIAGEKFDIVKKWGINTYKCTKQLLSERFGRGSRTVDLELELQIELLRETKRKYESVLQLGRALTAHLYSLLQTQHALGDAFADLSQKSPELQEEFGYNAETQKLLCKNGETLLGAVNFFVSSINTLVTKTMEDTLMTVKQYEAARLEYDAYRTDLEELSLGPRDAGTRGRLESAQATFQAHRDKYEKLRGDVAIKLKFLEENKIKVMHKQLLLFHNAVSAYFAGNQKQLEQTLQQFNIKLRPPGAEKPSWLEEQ
Malate dehydrogenase, cytoplasmic (Homo sapiens), sequence (P40925 whole entry): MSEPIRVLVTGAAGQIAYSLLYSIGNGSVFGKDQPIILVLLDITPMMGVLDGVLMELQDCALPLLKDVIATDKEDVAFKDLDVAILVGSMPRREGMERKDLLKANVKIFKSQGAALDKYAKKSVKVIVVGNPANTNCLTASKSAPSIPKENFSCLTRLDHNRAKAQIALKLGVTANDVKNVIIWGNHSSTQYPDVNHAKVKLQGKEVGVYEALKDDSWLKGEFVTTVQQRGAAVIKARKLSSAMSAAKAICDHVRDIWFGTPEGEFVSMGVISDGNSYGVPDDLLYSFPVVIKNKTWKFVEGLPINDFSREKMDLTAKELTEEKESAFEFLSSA
Pyruvate dehydrogenase protein X component, mitochondrial (Homo sapiens), sequence (O00330 whole entry): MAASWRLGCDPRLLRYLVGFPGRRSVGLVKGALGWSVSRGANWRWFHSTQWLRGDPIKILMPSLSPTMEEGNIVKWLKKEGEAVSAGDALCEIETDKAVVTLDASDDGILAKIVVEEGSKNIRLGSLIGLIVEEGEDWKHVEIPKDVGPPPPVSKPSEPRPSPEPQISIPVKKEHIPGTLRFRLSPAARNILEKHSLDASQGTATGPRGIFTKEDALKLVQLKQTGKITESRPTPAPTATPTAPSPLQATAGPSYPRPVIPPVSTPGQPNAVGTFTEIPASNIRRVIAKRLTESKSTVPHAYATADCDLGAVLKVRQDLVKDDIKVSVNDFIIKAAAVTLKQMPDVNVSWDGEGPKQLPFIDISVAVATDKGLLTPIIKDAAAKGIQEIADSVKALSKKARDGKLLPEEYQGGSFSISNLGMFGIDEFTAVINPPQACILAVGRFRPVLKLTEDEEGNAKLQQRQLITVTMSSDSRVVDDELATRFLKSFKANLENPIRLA
General transcription factor IIF subunit 2 (Homo sapiens), sequence (P13984 whole entry): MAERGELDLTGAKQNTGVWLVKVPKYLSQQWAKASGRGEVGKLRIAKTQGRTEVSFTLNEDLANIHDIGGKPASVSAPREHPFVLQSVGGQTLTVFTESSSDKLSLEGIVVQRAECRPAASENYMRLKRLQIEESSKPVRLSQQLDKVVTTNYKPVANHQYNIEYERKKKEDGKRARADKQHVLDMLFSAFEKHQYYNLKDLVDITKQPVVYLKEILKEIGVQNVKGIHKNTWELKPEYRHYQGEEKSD
Dual specificity testis-specific protein kinase 1 (Homo sapiens), sequence (Q15569 whole entry, looked up, canonical isoform): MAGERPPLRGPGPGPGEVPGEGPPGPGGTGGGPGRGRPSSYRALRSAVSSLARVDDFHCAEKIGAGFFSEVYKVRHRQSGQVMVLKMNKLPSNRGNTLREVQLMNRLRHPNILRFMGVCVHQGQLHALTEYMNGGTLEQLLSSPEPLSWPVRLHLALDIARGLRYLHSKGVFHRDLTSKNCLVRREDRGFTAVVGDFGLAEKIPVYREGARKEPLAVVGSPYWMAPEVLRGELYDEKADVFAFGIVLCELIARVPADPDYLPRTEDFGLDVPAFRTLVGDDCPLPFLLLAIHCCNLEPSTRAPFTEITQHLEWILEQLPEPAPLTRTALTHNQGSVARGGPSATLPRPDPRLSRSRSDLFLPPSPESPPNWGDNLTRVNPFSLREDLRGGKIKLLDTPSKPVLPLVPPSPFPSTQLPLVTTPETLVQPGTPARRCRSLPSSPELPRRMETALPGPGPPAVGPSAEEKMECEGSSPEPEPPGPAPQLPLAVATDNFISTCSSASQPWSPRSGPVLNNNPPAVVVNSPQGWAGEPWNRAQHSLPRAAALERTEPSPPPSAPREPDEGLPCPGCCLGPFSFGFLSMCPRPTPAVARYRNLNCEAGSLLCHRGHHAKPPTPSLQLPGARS
Lipid scramblase CLPTM1L (Homo sapiens), sequence (Q96KA5 whole entry): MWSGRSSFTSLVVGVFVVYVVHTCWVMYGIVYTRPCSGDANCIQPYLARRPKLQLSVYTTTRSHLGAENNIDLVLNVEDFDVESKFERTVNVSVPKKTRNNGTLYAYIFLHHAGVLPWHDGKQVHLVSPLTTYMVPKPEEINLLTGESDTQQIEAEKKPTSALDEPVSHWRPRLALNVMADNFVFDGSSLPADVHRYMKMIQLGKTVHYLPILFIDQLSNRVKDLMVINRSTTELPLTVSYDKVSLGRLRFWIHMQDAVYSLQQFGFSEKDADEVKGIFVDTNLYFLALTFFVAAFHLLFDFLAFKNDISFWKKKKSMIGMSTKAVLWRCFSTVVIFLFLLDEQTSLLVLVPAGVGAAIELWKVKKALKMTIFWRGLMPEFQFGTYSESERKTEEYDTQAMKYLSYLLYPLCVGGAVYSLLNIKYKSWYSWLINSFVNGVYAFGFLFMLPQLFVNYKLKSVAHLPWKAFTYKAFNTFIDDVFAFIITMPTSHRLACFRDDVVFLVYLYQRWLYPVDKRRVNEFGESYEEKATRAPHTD
Protein-L-isoaspartate(D-aspartate) O-methyltransferase (Homo sapiens), sequence (P22061 whole entry): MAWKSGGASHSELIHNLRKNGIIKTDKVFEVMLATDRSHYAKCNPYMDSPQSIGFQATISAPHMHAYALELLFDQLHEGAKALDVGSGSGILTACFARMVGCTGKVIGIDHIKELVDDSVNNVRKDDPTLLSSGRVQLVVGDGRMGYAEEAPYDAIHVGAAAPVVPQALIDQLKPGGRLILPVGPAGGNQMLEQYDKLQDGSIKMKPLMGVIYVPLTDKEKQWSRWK
Mismatch repair endonuclease PMS2 (Homo sapiens), sequence (P54278 whole entry): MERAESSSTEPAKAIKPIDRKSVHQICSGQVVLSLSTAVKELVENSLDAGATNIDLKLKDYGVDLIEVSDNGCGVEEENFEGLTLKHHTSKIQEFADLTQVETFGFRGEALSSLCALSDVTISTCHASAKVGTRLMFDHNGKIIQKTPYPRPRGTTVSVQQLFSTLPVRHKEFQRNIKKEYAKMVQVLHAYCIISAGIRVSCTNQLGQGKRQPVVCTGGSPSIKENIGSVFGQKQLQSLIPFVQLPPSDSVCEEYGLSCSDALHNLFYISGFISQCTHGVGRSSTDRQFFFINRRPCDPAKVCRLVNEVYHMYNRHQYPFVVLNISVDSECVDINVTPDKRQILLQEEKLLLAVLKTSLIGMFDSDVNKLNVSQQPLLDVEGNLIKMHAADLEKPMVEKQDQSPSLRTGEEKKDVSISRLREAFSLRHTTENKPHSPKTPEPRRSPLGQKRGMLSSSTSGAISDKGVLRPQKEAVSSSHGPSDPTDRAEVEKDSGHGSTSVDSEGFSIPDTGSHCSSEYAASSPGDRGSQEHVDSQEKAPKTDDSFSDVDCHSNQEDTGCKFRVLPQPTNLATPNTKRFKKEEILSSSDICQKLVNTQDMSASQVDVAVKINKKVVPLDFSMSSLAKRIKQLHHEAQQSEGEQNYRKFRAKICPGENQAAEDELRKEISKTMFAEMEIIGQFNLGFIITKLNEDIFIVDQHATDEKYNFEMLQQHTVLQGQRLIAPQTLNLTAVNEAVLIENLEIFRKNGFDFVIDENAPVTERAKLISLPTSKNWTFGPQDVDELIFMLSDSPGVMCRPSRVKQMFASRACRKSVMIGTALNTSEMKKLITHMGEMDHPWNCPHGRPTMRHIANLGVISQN
Nuclear factor NF-kappa-B p105 subunit (Homo sapiens), sequence (P19838 1-433 limits assumed): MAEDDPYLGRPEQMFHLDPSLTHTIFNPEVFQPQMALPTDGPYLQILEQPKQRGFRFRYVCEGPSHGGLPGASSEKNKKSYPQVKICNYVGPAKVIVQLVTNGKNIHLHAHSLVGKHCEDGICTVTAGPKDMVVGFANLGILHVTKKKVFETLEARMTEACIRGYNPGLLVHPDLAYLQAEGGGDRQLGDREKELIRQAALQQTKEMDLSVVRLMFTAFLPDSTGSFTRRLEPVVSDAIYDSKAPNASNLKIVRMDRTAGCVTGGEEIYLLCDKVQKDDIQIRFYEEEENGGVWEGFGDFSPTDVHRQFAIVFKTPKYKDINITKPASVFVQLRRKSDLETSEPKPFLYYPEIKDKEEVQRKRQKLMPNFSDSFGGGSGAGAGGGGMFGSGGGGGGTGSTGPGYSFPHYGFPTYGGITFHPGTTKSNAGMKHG
NADH dehydrogenase [ubiquinone] flavoprotein 2, mitochondrial (Homo sapiens), sequence (P19404 whole entry): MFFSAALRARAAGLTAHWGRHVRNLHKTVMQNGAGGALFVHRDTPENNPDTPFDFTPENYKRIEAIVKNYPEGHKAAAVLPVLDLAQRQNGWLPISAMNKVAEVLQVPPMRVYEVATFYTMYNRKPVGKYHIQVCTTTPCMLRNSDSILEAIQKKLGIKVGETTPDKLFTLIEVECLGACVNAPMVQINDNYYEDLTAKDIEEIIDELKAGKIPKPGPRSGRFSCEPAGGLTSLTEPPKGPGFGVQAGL

Cc1ccc(C(=O)Nc2cccc(C(F)(F)F)c2)cc1Nc1nc(-c2cccnc2)nc2c1cnn2C
ED50 [1]: 2870 nM | ED50 [2]: 1180 nM | ED50 [3]: 14.1 nM | ED50 [4]: 73.5 nM | ED50 [5]: 2930 nM | ED50 [6]: 579 nM | ED50 [7]: 47700 nM | ED50 [8]: 7690 nM | ED50 [9]: 91400 nM | ED50 [10]: 1990 nM | ED50 [11]: 27.9 nM | ED50 [12]: 41.5 nM | ED50 [13]: 89900 nM | ED50 [14]: 48.2 nM | ED50 [15]: 8.16 nM | ED50 [16]: 6.91 nM | ED50 [17]: 1960 nM | ED50 [18]: 6960 nM | ED50 [19]: 71.9 nM | ED50 [20]: 5.94 nM | ED50 [21]: 55200 nM | ED50 (Cullin-4B (Homo sapiens)): 1760 nM | ED50 [22]: 169 nM | ED50 [23]: 0.171 nM | ED50 [24]: 211000 nM | ED50 [25]: 15600 nM | ED50 [26]: 9580 nM | ED50 [27]: 39.4 nM | ED50 [28]: 15400 nM | ED50 [29]: 12600 nM | ED50 [30]: 0.117 nM | ED50 [31]: 1.63 nM | ED50 [32]: 657 nM | ED50 [33]: 571 nM | ED50 [34]: 4.96 nM | ED50 [35]: 10100 nM | ED50 (Radixin (Homo sapiens)): 2 nM | ED50 [36]: 97.1 nM | ED50 [37]: 12.4 nM | ED50 [38]: 8800 nM

Cc1ccc(C(=O)Nc2cccc(C(F)(F)F)c2)cc1Nc1nc(-c2cccnc2)nc2nn(C)cc12
ED50 [39]: 20.6 nM | ED50 [40]: 393 nM | ED50 [41]: 1930 nM | ED50 [42]: 149000 nM | ED50 [43]: 102 nM
